≈ marks a conversion by molar mass, not a printed value.
Tests used:
[1] = biological target: T1, α-glucosidase enzyme (EC3.2.1.20) (Saccharomyces cerevisiae, UniProt P53341); assay: biochemical; details: for inhibition at 1 µg/mL / inhibition at 10 µg/mL / inhibition at 100 µg/mL / inhibition at 1000 µg/mL: read-out: % inhibition of α-glucosidase
T1 construct: purchased Sigma-Aldrich
Description: The α-glucosidase enzyme is mainly expressed in the small intestine and catalyzes the breakdown of carbohydrates into glucose units by cleaving the glucosidic bonds. α-Glucosidase blockers are the first-line drugs for the treatment of non-insulin-dependent DM by suppressing carbohydrate hydrolysis and consequently retarding glucose absorption into the bloodstream and reducing postprandial hyperglycemia. α-Glucosidase is, thus, considered to be an attractive pharmaceutical target for the treatment of […] via control of the blood glucose levels. Accordingly, there is a continuous need to develop a potential class of α-glucosidase inhibitors. Toward this aim, we explored the potency of the synthesized compounds to inhibit the activity of α-glucosidase. We examined the inhibitory activity of the synthesized compounds following the reported assay by Peytam et al.. Thus, the compounds at different concentrations (1000, 100, 10, and 1 µg/mL) were incubated with α-glucosidase and subsequently […] was added and the absorbance was monitored at 405 nm. […] To further investigate the structural aspects of 1,3-thiohydantoin scaffold, a substitution at the N1-position with the methyl-proponate group was performed. […] Nevertheless, it has adverse gastrointestinal effects including diarrhea and flatulence. Thus, the discovery of a novel class of potent antidiabetic agents is urgently demanded.
An ELISA reader was used to assess the inhibition of α-glucosidase by 1,3,5-trisubstituted-2-thioxoimidazolidin-4-ones derivatives at various doses (1000, 100, 10, and 1 µg/mL) according to Peytam et al.. […] Then, the substrate (25 µL, 4 mM) was added to the mentioned mixture and allowed to incubate at 37 °C for 20 min. Finally, the change in absorbance at 405 nm was monitored using a Cytation 3 hybrid microplate reader (BioTek, Winooski, VT, USA). […] GraphPad prism 6.0 was used to calculate the IC50 values of the investigated compounds from the nonlinear regression curve (Systat Software, Inc. Tools for Science) (https://www.graphpad.com/scientific-software/prism/ (accessed on 1 September 2022)).

[2] = MTT cytotoxicity assay against WI-38 cells; assay type: cell-based, human; details: human, WI-38 lung fibroblast cells; for viability at 48 h, 4 µg/mL: 4 µg/mL (log conc. 0.602); for viability at 48 h, 16 µg/mL: 16 µg/mL (log conc. 1.204); for viability at 48 h, 63 µg/mL: 63 µg/mL (log conc. 1.799); for viability at 48 h, 250 µg/mL: 250 µg/mL (log conc. 2.398); for viability at 48 h, 1000 µg/mL: 1000 µg/mL (log conc. 3); for IC50 at 48 h: MTT
Description: Based on the promising dual inhibitory activity of this class of compounds, we next evaluated the cytotoxicity of compounds 5a and 7a against human lung fibroblast cell line WI-38 in order to gain insights into the toxicity of this class of compounds utilizing the MTT assay. In this regard, lung fibroblast cells were cultured and treated with compounds 5a and 7a for 48 h at different concentrations (1000, 250, 63, 16, and 4 µg/mL). After the cells were washed, they were treated with MTT solution and the absorption was assessed using an ELISA reader at 570 nm. As a pharmacological reference drug, Celecoxib, a well-known anti-inflammatory agent, was utilized.
The cytotoxicity of compounds 5a and 7a was assessed toward the human lung fibroblast WI-38 cell line (Sigma-Aldrich, St. Louis, MO, USA, product number 90020107) using MTT assay. The MTT test assay was performed in accordance with the previously stated procedure. MTT (3-(4,5-dimethylthiazol-2-yl)-2,5-diphenyl tetrazolium bromide; Sigma catalog no. M2128) was dissolved in PBS at 5 mg/mL and processed to eliminate the insoluble residues. Briefly, cells (10^5 cells/well) were treated for 48 h at 37 °C with compounds 5a and 7a at varied doses (1000, 250, 63, 16, and 4 µg/mL, DMSO stock solutions) in a 5% CO2 atmosphere. In our assessment, celecoxib, an inhibitor of cyclooxygenase 2, was employed as a standard reference drug. Following cell washing, MTT solution (180 µL/well) was applied to the cells and incubated at 37 °C for 4 h with shaking, and the absorbance was measured using an ELISA reader at 570 nm.

[3] = DPPH free radical scavenging assay; details: for DPPH free radical scavenging IC50: n = 4
Description: The antioxidant capability of compounds 5a and 7a was estimated utilizing the DPPH (2,2-diphenyl-1- picrylhydrazyl) scavenging assay to assess the free radical scavenger activity. DPPH is a stable free radical substrate with a purple color which upon reaction with an antioxidant compound, converts into 1,1-diphenyl-2-picryl hydrazine, a […] compound. The DPPH assay is widely applied for the investigation of superoxide radical scavenging activity. In this regard, compounds 5a and 7a were incubated at different concentrations (3.12, 6.25, 12.5, 25, 50, 100, and 200 µg/mL) with DPPH substrate and the absorption was assessed by ELISA at 510 nm. In our investigations, Trolox, a water-soluble analogue of vitamin E, was applied as a standard antioxidant reference drug. […] Further, Qamar et al. synthesized and evaluated the antioxidant activity of some novel N3-substituted-2-thiohydantoins.
According to Valko et al., the ELISA approach was used to analyze the free-radical DPPH scavenging activity of compounds (5a and 7a) at different concentrations (3.12, 6.25, 12.5, 25, 50, 100, and 200 µg/mL). The DPPH assay assesses the hydrogen-donating activity and thus provides an evaluation of the antioxidant activity via estimating the DPPH free-radical scavenging activity. The color intensity of the reaction mixture was measured after a purple-colored stable free radical (DPPH) was reduced into the yellow-colored diphenylpicryl hydrazinem. Briefly, 200 µL of different concentrations of compounds 5a and 7a were mixed with 50 µL of DPPH (0.659 mM) solution, and the mixture was incubated at 25 °C for 20 min. The absorbance of the reaction mixture was estimated after incubation at 510 nm. In our investigations, trolox was employed as standard reference drug. A control reaction was performed, and the inhibitory efficiency of DPPH radical-scavenging activity was determined using the equation below: % Inhibition = (A0 − A1)/A0 × 100 (1) where A0 is absorbance of […] and A1 is the absorbance of the compound.

T1 sequence (P53341 whole entry): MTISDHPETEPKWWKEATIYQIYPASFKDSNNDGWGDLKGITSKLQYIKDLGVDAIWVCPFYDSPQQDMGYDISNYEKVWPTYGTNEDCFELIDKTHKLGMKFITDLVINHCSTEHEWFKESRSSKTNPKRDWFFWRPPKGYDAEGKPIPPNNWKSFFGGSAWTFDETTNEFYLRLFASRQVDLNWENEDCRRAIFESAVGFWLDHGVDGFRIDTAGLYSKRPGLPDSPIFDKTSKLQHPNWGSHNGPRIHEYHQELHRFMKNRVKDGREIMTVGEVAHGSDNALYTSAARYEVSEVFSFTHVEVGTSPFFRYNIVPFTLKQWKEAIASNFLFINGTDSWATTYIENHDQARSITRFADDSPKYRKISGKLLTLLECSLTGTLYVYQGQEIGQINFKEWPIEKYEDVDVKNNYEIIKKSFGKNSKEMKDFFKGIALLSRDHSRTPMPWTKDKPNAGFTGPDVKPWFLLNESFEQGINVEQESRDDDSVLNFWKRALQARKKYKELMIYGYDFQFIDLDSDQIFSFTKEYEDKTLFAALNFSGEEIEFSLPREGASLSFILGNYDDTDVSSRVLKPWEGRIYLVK

Row | SMILES | IC50 [1] | inhibition at 1 µg/mL [1] | inhibition at 10 µg/mL [1] | inhibition at 100 µg/mL [1] | inhibition at 1000 µg/mL [1] | viability at 48 h, 4 µg/mL [2] | viability at 48 h, 16 µg/mL [2] | viability at 48 h, 63 µg/mL [2] | viability at 48 h, 250 µg/mL [2] | viability at 48 h, 1000 µg/mL [2] | IC50 at 48 h [2] | %RSA (DPPH radical scavenging activity) ([3]; 3.12 µg/mL) | %RSA (DPPH radical scavenging activity) ([3]; 6.25 µg/mL) | %RSA (DPPH radical scavenging activity) ([3]; 12.5 µg/mL) | %RSA (DPPH radical scavenging activity) ([3]; 25 µg/mL) | %RSA (DPPH radical scavenging activity) ([3]; 50 µg/mL) | %RSA (DPPH radical scavenging activity) ([3]; 100 µg/mL) | %RSA (DPPH radical scavenging activity) ([3]; 200 µg/mL) | DPPH free radical scavenging IC50 [3]
1 | COC(=O)CCN1C(=S)N(N=C(C)c2ccccc2O)C(=O)C1=Cc1ccccc1OC(C)=O [Compound 7a, Methyl [5-(2-acetoxybenzylidene)-4-oxo-3-(2-hydroxyphenylethylidene)amino-2-thioxoimidazolidin-1-yl] propionate] | 38.2 µM | 21.8% | 48.3% | 66.1% | 82.6% | 73% | 60.6% | 53.4% | 44.1% | 36.6% | 109 mg/L (≈ 227 µM) | 9.7382% | 18.9636% | 30.2839% | 45.4635% | 62.2992% | 81.6087% | 80.732% | 65.5 mg/L
2 | COC(=O)CCN1C(=S)N(N=C(C)c2ccccc2O)C(=O)C1=Cc1ccccc1O [Compound 5a, Methyl [5-(2-hydroxybenzylidene)-4-oxo-3-(2-hydroxyphenylethylidene)amino-2-thioxoimidazolidin-1-yl] propionate] | 11.6 µM | 35% | 58% | 75% | 86% | 69% | 59.8% | 52.9% | 44.1% | 34.6% | 88.5 mg/L (≈ 201 µM) | 12.8385% | 25.9268% | 34.2% | 49.2589% | 65.3256% | 84.0278% | 90.9673% | 51.75 mg/L

Reference: publication PMC9785777, “Antidiabetic Potential of Novel 1,3,5-Trisubstituted-2-Thioxoimidazloidin-4-One Analogues: Insights into α-Glucosidase, α-Amylase, and Antioxidant Activities” (Pharmaceuticals, 2022)
